Marks after values point to notes of the source that are not given here.
Key:
[1] = system: PI3K pathway; assay: Phase 1 study in patients with solid tumors: pharmacodynamics in surrogate and tumor tissue; assay type: in vivo, human
Protocol: (§1) The maximum tolerated dose (MTD) was defined as 600 mg (capsule) once daily (QD) on either a 21/7 (administered continuously for 21 days followed by 7 days rest) or a continuous daily dosing schedule. […] A dose-escalation study of a tablet formulation is ongoing. Ten additional patients have been enrolled in the expansion cohort to better define the activity of Compound A, and further studies are warranted.

[2] = molecular target: class I PI3K isoform γ (Homo sapiens, UniProt P48736); details: read-out: IC50 PI3K γ
class I PI3K isoform γ, sequence (P48736 whole entry, canonical isoform): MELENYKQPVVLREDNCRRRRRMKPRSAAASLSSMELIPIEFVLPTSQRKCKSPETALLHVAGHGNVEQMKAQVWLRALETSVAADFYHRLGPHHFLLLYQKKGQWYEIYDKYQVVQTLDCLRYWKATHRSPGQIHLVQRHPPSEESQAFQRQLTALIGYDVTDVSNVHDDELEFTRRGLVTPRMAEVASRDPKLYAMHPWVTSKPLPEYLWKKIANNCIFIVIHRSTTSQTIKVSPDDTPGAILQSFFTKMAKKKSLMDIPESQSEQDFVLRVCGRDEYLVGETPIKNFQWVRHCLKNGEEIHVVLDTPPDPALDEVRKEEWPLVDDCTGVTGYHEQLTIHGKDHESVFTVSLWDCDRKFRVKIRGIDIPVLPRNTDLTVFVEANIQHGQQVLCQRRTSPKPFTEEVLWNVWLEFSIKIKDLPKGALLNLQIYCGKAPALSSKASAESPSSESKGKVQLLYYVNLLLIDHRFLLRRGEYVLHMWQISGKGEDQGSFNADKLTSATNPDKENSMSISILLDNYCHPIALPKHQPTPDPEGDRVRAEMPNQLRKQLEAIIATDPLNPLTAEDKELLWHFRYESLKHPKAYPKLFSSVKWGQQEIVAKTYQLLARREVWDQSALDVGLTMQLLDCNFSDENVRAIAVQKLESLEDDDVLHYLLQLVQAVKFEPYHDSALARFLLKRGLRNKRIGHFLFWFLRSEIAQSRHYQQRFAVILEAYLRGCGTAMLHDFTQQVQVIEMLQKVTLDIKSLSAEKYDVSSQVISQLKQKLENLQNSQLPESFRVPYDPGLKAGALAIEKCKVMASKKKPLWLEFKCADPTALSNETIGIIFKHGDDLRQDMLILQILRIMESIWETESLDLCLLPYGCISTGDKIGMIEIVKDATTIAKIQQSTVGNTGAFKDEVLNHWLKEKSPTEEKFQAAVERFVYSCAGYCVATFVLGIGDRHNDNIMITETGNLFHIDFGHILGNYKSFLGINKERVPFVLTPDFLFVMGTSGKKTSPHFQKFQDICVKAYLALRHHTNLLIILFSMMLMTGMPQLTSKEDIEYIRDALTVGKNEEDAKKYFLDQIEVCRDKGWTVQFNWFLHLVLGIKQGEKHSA

[3] = Phase 1 trial, lymphoma/CLL expansion cohort: plasma pharmacokinetics; assay type: in vivo, human; details: 600 mg oral daily, cycle 1, eight patients
Excerpt: The secondary objectives were to determine (a) the plasma pharmacokinetics of Compound A; and (b) the pharmacodynamic effects of Compound A on tumor tissue.
There was inter-patient variability, and the geometric mean was 7.6 fold.

[4] = system: downstream targets of PI3K, including pAKT and pEBP1; assay: Phosphorylation of downstream targets of PI3K in vitro and in vivo
[5] = system: downstream effectors of PI3K; assay: Preclinical xenograft model studies: phosphorylation of downstream effectors of PI3K; assay type: in vivo; details: preclinical xenograft models, well-tolerated doses
[6] = system: relapsed/refractory lymphoma and CLL; assay: Phase 1 trial, lymphoma/CLL expansion cohort: best response; assay type: in vivo, human
Protocol: As part of a phase 1 single agent study in solid tumors, we administered Compound A to a dedicated expansion cohort of patients with relapsed/refractory lymphoma and CLL. The drug was administered orally daily, with continuous dosing in monthly cycles. A total of 15 patients were enrolled at three centers. An initial cohort of 3 patients was enrolled, followed by a safety review, with subsequent enrollment of the remaining 12 subjects. The median age of the patients was 66 years (range 28-81), 40% were male and 60% female.
This was a Phase 1, open-label, non-randomized trial of Compound A given orally as a single agent in subjects with lymphoma.
The key eligibility include the following: • Histologically confirmed diagnosis of relapsed or refractory lymphoma • Measureable disease • Adequate bone marrow function defined as: • ANC≥1000/mm^3 (CLL with ALC≥100,000/mm^3 required to have ANC≥500/mm^3) • Platelets≥30,000/mm^3 • Hemoglobin≥8 g/dL • Archival or fresh tumor tissue • No prior therapy with a selective PI3K inhibitor • Written informed consent. Results

[7] = molecular target: mTOR (Homo sapiens, UniProt P42345); details: read-out: IC50 mTOR
[8] = molecular target: class I PI3K isoform β (Homo sapiens, UniProt P42338); details: read-out: IC50 PI3K β
class I PI3K isoform β, sequence (P42338 whole entry, canonical isoform): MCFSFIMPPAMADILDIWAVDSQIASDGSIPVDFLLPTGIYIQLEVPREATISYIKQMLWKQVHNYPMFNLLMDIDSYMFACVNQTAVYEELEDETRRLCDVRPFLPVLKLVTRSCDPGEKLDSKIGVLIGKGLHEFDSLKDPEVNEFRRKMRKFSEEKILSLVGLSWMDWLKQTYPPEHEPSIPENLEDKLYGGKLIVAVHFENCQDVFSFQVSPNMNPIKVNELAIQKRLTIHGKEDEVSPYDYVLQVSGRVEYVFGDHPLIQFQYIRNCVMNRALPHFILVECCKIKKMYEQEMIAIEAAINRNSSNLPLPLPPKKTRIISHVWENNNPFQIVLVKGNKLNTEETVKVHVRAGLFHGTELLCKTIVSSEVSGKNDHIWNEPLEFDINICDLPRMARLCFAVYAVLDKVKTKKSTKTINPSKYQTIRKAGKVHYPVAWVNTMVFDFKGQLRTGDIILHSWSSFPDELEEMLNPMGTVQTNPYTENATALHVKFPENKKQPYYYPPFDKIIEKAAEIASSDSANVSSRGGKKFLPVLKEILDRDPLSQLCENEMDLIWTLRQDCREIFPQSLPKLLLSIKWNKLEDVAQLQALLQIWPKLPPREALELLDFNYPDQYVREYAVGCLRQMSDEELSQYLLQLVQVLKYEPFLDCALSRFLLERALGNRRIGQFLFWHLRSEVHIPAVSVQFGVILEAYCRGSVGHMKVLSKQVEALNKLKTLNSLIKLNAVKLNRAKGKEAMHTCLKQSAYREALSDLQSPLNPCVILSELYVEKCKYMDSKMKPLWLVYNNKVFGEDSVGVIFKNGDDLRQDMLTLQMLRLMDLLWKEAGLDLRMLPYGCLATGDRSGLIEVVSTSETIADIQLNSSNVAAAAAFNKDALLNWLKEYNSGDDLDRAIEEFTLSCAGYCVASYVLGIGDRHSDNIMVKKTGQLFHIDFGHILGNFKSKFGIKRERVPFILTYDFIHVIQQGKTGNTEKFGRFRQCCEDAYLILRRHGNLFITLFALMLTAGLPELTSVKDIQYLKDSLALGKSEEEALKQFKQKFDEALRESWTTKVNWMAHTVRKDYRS
class I PI3K isoform β, sequence (P27986 whole entry partner, canonical isoform): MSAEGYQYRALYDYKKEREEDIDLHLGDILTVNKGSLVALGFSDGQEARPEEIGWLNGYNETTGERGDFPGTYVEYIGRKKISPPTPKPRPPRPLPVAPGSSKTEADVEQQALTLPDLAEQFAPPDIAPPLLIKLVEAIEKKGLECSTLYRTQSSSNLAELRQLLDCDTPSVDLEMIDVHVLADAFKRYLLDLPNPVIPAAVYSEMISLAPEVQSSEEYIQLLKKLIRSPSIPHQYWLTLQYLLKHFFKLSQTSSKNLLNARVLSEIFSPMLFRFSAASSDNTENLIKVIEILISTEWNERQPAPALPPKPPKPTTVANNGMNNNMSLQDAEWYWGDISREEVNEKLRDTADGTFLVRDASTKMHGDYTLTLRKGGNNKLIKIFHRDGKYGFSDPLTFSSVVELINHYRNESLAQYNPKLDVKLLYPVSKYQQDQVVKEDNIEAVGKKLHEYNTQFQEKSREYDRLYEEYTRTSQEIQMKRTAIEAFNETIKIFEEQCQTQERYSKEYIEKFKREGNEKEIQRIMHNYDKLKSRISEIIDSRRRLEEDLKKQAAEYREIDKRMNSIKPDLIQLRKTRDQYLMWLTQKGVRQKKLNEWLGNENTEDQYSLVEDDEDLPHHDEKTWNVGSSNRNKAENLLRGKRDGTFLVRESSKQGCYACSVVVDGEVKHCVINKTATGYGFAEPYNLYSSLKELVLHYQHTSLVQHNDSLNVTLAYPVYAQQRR

[9] = Phase 1 study in solid tumors: maximum tolerated dose and dose-limiting toxicities; assay type: in vivo
Protocol: as §1

[10] = system: xenograft tumor; assay: Preclinical xenograft model studies: tumor growth; assay type: in vivo; details: preclinical xenograft models, well-tolerated doses
[11] = Phase 1 trial, lymphoma/CLL expansion cohort: safety and tolerability; assay type: in vivo, human
[12] = molecular target: class I PI3K isoform δ (Homo sapiens, UniProt O00329); details: read-out: IC50 PI3K δ
class I PI3K isoform δ, sequence (O00329 whole entry, canonical isoform): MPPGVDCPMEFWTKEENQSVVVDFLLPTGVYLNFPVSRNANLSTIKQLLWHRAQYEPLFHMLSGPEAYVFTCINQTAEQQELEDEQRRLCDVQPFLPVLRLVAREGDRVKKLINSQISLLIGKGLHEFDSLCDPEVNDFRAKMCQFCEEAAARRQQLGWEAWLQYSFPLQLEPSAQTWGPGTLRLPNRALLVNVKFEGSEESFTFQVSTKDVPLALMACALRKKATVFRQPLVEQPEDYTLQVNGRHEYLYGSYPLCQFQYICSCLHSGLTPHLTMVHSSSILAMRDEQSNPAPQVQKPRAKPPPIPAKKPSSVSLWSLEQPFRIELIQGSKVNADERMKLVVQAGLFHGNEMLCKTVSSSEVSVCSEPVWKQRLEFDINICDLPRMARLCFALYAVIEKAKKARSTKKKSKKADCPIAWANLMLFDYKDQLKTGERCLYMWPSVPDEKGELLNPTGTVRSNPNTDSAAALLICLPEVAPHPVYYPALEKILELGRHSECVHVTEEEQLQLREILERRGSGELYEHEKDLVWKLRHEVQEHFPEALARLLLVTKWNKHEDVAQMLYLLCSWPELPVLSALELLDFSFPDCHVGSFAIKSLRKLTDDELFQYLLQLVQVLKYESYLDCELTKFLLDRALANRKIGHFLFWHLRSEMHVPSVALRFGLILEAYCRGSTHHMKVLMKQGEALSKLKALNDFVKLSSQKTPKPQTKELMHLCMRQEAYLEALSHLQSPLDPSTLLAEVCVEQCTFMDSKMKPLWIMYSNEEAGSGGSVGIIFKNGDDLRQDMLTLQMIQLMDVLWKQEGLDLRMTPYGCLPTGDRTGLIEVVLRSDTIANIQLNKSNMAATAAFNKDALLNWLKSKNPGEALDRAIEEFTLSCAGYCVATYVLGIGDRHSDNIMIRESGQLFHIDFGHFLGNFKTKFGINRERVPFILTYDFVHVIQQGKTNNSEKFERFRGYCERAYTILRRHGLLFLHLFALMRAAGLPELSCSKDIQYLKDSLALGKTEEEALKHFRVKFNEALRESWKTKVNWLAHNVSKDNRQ
class I PI3K isoform δ, sequence (P27986 whole entry partner, canonical isoform): as the sequence (P27986 whole entry partner, canonical isoform) above

[13] = Hodgkin Lymphoma, n = 2 evaluated
[14] = nineteen subjects, 600 mg capsule daily
[15] = nineteen subjects, unrelated to study drug

**Q.** What does the source list for `COc1ccc(Cl)c(Nc2nc3ccccc3nc2NS(=O)(=O)c2cccc(NC(=O)C(C)(C)N)c2)c1` [Compound A, N-(3-{[(3-{[2-chloro-5-(methoxy)phenyl]amino}quinoxalin-2-yl)amino]sulfonyl}phenyl)-2-methylalaninamide]?
**A.** effect as monotherapy ([1]; human, in vivo): primarily anti-proliferative, not pro-apoptotic; PI3K pathway activation in surrogate tissue (PBMC, hair follicle, skin) and tumor tissue ([1]; once daily, patients with solid tumors): inhibited PI3K pathway activation; PI3K and ERK pathway inhibition ([1]; well-tolerated doses): robust PI3K and ERK pathway inhibition; IC50 [2]: 36 nM; geometric mean accumulation (AUC) on day 28 [3]: 7.6 fold; mean (CV %) accumulation (AUC) on day 28 ([3]; CV 88.1%): approximately 11.2 fold; phosphorylation of downstream targets of PI3K, including pAKT and pEBP1 [4]: inhibits phosphorylation; phosphorylation of downstream effectors of PI3K [5]: inhibited phosphorylation of downstream effectors of PI3K; best response Stable Disease, number of patients ([6]; CLL/SLL, n = 5 evaluated, 600 mg capsule once daily, after cycle 2): 5^b; best response Stable Disease, number of patients ([6]; Follicular Lymphoma, n = 2 evaluated, 600 mg capsule once daily): 2^; best response Progressive Disease, number of patients [6, 13]: 1; best response Stable Disease, number of patients [6, 13]: 1^e; best response Stable Disease, number of patients ([6]; Transformed Lymphoma, n = 1 evaluated): 1^d; best response Complete Response, number of patients ([6]; Waldenstrom's Macroglobulinemia, n = 1 evaluated, complete response at cycle 14): 1^c; activity in patients ([6]; in vivo): active in CLL and low-grade lymphomas; IC50 [7]: > 15000 nM; IC50 [8]: 383 nM; maximum tolerated dose (MTD) ([9]; capsule, once daily (QD), 21/7 or continuous daily dosing schedule): 600 mg; dose-limiting toxicities ([9]; human, in vivo): Grade 3 rash and Grade 3 hypersensitivity; tumor growth [10]: inhibited tumor growth; grade 3-4 thrombocytopenia ([11]; 1/15 patients, oral daily continuous dosing): 6.7%; hyperglycemia, grade 1-2 event ([11]; 1 of 15 patients): 6.7%; hyperglycemia, grade 3-4 event ([11]; 1 of 15 patients): 6.7%; grade 3-4 neutropenia ([11]; 4/15 patients, oral daily continuous dosing): 26.7%; tolerability in patients with lymphoma and CLL ([11]; in vivo): well-tolerated; Patients requiring dose modification due to toxicity: Hyperglycemia ([11]; nineteen subjects): 1 (5) n (%); Patients requiring dose modification due to toxicity: Neutropenia ([11]; nineteen subjects): 2 (11) n (%); Patients requiring dose modification due to toxicity: Rash ([11]; nineteen subjects): 1 (5) n (%); Abdominal Pain, All Adverse Events, All Grades [11, 14]: 4 (21) n (%); Abdominal Pain, All Adverse Events, Grade ≥3 [11, 14]: 1 (5) n (%); Abdominal Pain, Related Adverse Events, All Grades [11, 14]: 2 (11) n (%); Abdominal Pain, Related Adverse Events, Grade ≥3 [11, 14]: 0 n (%); Anemia, All Adverse Events, All Grades [11, 14]: 4 (21) n (%); Anemia, All Adverse Events, Grade ≥3 [11, 14]: 3 (16) n (%); Anemia, Related Adverse Events, All Grades [11, 14]: 1 (5) n (%); Anemia, Related Adverse Events, Grade ≥3 [11, 14]: 0 n (%); Cough, All Adverse Events, All Grades [11, 14]: 6 (32) n (%); Cough, All Adverse Events, Grade ≥3 [11, 14]: 1 (5) n (%); Cough, Related Adverse Events, All Grades [11, 14]: 0 n (%); Cough, Related Adverse Events, Grade ≥3 [11, 14]: 0 n (%); Diarrhea, All Adverse Events, All Grades [11, 14]: 12 (63) n (%); Diarrhea, All Adverse Events, Grade ≥3 [11, 14]: 1 (5) n (%); Diarrhea, Related Adverse Events, All Grades [11, 14]: 7 (37) n (%); Diarrhea, Related Adverse Events, Grade ≥3 [11, 14]: 1 (5) n (%); Dyspnea, All Adverse Events, All Grades [11, 14]: 4 (21) n (%); Dyspnea, All Adverse Events, Grade ≥3 [11, 14]: 1 (5) n (%); Dyspnea, Related Adverse Events, All Grades [11, 14]: 0 n (%); Dyspnea, Related Adverse Events, Grade ≥3 [11, 14]: 0 n (%); Fatigue, All Adverse Events, All Grades [11, 14]: 5 (26) n (%); Fatigue, All Adverse Events, Grade ≥3 [11, 14]: 0 n (%); Fatigue, Related Adverse Events, All Grades [11, 14]: 0 n (%); Fatigue, Related Adverse Events, Grade ≥3 [11, 14]: 0 n (%); Hyperglycemia, All Adverse Events, All Grades [11, 14]: 4 (21) n (%); Hyperglycemia, All Adverse Events, Grade ≥3 [11, 14]: 1 (5) n (%); Hyperglycemia, Related Adverse Events, All Grades [11, 14]: 4 (21) n (%); Hyperglycemia, Related Adverse Events, Grade ≥3 [11, 14]: 1 (5) n (%); Neutropenia, All Adverse Events, All Grades [11, 14]: 5 (26) n (%); Neutropenia, All Adverse Events, Grade ≥3 [11, 14]: 5 (26) n (%); Neutropenia, Related Adverse Events, All Grades [11, 14]: 4 (21) n (%); Neutropenia, Related Adverse Events, Grade ≥3 [11, 14]: 4 (21) n (%); Pruritus, All Adverse Events, All Grades [11, 14]: 4 (21) n (%); Pruritus, All Adverse Events, Grade ≥3 [11, 14]: 1 (5) n (%); Pruritus, Related Adverse Events, All Grades [11, 14]: 2 (11) n (%); Pruritus, Related Adverse Events, Grade ≥3 [11, 14]: 0 n (%); Pyrexia, All Adverse Events, All Grades [11, 14]: 5 (26) n (%); Pyrexia, All Adverse Events, Grade ≥3 [11, 14]: 1 (5) n (%); Pyrexia, Related Adverse Events, All Grades [11, 14]: 1 (5) n (%); Pyrexia, Related Adverse Events, Grade ≥3 [11, 14]: 0 n (%); Rash, All Adverse Events, All Grades [11, 14]: 4 (21) n (%); Rash, All Adverse Events, Grade ≥3 [11, 14]: 1 (5) n (%); Rash, Related Adverse Events, All Grades [11, 14]: 3 (16) n (%); Rash, Related Adverse Events, Grade ≥3 [11, 14]: 1 (5) n (%); Patients requiring dose modification due to toxicity ([11]; nineteen subjects, total): 7 (37) n (%); Patients requiring dose modification due to toxicity: More than 1 event in the same patient ([11]; nineteen subjects, diarrhea, fever/pneumonia, fever/pneumonia/sepsis/ileus/fluid overload): 1 (5) n (%); Patients requiring dose modification due to toxicity: Fever/hypotension [11, 15]: 1 (5) n (%); Patients requiring dose modification due to toxicity: Respiratory infection [11, 15]: 1 (5) n (%); IC50 [12]: 23 nM
